Data taken from patent US7018631B1, “Compositions and methods for sensitizing and inhibiting growth of human tumor cells” (St. Jude Children's Research Hospital, priority 1998, dated 2006).
“Also recorded” adds a separate entry of the source. Like-named read-outs stand apart in the source and are kept apart here.

Experiments:
[1] = patients; cited from earlier work
rabbit liver CE [2] = target: T1, rabbit liver CE (Oryctolagus cuniculus, UniProt P12337); experiment: Metabolism of CPT-11 by commercially available rabbit liver CE, rapid fluorometric assay; assay type: biochemical; settings: partially purified commercial rabbit liver CE
T1 sequence (P12337 19-565): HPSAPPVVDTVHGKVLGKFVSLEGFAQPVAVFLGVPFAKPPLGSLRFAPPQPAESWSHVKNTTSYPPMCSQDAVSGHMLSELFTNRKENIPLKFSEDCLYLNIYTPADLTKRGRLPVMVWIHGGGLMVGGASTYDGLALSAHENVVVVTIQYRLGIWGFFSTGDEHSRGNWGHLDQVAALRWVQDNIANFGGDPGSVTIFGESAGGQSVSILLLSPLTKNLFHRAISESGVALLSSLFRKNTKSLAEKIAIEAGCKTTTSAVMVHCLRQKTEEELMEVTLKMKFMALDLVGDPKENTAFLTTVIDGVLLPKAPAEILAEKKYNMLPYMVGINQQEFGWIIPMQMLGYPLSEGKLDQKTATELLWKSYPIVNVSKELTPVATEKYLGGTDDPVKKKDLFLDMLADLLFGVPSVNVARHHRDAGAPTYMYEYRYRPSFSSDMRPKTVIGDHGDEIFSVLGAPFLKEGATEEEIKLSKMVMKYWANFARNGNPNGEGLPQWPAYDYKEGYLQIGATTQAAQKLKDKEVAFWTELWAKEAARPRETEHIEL
Description: (§1) The commercially available pig CE contained several proteins. […] Therefore, the rabbit proteins were chosen for further study.

human NB-1691 xenografts = experiment: NB-1691 xenograft model for MRD; assay type: in vivo, mice; settings: 10 mg/kg CPT-11 daily for 5 days on two consecutive weeks
Description: However, within 4–6 weeks, tumors are palpable in the exact position where the original xenograft was implanted. Since these tumors arise from cells that survived the initial cycle of chemotherapy, this model therefore mimics results seen in patients following surgical resection of the primary tumor and subsequent regrowth at the same site.

[3] = test system: U373 glioblastoma xenografts; experiment: U373 glioblastoma xenografts in SCID mice treated with CPT-11; assay type: in vivo; settings: 7.5 mg/kg/day, three cycles
Description: The tumor growth rate is depicted on the Y-axis in terms of tumor volume and is plotted as a function of time in weeks (X-axis). Open circles depict the tumor volume of untreated U373 xenografts expressing rabbit CE. Filled triangles depict the response of control xenografts (no rabbit CE) treated with CPT-11. Filled squares depict the response of cells expressing rabbit CE and treated with CPT-11. […] Each point represents the mean of 14 tumors in 7 individual mice.
Similar studies were performed employing U373 glioblastoma cells transfected with the pIRESneo plasmid or with pIRESneo containing the cDNA for rabbit liver CE and selected with G418. Expression of CE in the tumor cells was confirmed by biochemical assay using the substrate o-NPA. Cells were injected subcutaneously into the flanks of the SCID mice.

Rh30 cells = experiment: Growth inhibition of Rh30 cells by CPT-11 pre-incubated with rabbit liver CE; assay type: cell-based, human; settings: 1 to 5 units of CE inactivated by heating; 1 h exposure
Description: Another aspect of the present invention relates to the ability of compositions of the present invention comprising a polynucleotide encoding a carboxylesterase and a disease-specific responsive promoter of selected tumor cells to sensitize the tumor cells to a chemotherapeutic prodrug. The ability of the combination of a rabbit CE of the present invention and CPT-11 to sensitize human tumor cells to CPT-11 was examined. Experiments were first performed to confirm that the metabolite produced by the activity of a CE of the present invention is biologically active in vitro. Rh30 cells were then exposed to the products of each reaction for one hour and the percentage of growth inhibition was determined.
Each reaction mixture was then filter-sterilized and Rh30 cells were exposed to drug for one hour, at which time the medium was replaced with drug-free medium containing serum. […] Cells were allowed to grow for 3 cell doubling times and cell numbers were determined.

Rh18 RMS xenografts = settings: cited from earlier work
pig liver CE = experiment: Metabolism of CPT-11 by commercially available pig liver CE, rapid fluorometric assay; assay type: biochemical; settings: partially purified commercial pig liver CE
Description: as §1

[4] = test system: Rh30 rhabdomyosarcoma cells; experiment: Growth inhibition by CPT-11 of Rh30 cells stably transfected with pIRES or rabbit CE cDNA; assay type: cell-based; settings: Homo sapiens, Rh30, 2 h, 2 h exposure
Description: The in vitro activity of rabbit liver CE was examined in tumor cell lines. […] Optimized conditions for electroporation were achieved using 180 V and 960 uF. […] Cells were grown for a minimum of 10 days before use in growth inhibition experiments. […] Drug was added to tissue culture medium of each of the stably transfected cell lines for two hours, after which time the medium was replaced with drug-free medium. Cells were then allowed to grow for 3 cell doublings as before.

[5] = test system: Rh30 rhabdosarcoma xenografts; experiment: Rh30 and Rh30pIRESrabbit xenografts in SCID mice treated with CPT-11; assay type: in vivo; settings: for tumor response: 2.5 mg CPT-11/kg/day, three cycles
Description: The tumor growth rate is depicted on the Y-axis of each graph in terms of tumor volume and is plotted as a function of time in weeks (X-axis).
In this preclinical model, expression of the transfected cDNA for rabbit CE was maintained for at least 12 weeks.
Experiments were performed in this model to compare the responses of mice bearing human Rh30 and Rh30pIRESrabbit xenografts. Rh30 rhabdosarcoma xenografts were transfected with pIRESneo plasmid containing the cDNA for rabbit liver CE and selected with G418. Expression of CE was confirmed by biochemical assay using the CE substrate o-NPA and maintained for at least 12 weeks. Two groups of SCID mice were then injected with the transfected Rh30pIRESrabbit cells subcutaneously into the flanks. A third group of control mice was injected in identical fashion with Rh30 cells not transfected with the plasmid.

[6] = test system: CEs purified from human tissues; settings: human CE; cited from earlier work
topoisomerase I = target: T2, topoisomerase I (Homo sapiens, UniProt P11387); settings: cited from earlier work
T2 sequence (P11387 1-765): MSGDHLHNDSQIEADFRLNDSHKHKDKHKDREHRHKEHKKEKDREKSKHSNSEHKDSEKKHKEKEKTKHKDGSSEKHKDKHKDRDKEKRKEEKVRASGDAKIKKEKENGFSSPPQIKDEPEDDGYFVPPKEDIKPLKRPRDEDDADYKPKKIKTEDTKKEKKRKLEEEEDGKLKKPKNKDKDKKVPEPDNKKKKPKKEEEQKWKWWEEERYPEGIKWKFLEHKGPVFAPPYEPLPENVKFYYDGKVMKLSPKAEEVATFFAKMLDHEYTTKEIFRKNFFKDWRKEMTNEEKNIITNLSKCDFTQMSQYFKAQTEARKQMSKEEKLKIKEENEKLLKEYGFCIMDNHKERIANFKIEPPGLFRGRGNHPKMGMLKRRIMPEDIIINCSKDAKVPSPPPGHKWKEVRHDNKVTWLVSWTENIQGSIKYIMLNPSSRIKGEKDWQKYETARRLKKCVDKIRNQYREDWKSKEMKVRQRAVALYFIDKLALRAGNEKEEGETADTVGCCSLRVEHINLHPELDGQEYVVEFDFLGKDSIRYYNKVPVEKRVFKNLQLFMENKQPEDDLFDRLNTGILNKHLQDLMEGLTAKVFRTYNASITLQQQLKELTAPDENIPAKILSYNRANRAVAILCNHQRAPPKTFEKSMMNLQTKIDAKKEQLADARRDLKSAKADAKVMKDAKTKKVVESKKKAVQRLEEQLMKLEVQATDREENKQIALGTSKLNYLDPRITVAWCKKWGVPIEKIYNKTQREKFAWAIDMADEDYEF

U-373 glioma cells = experiment: Sensitization of U-373 glioma cells expressing CE to APC; assay type: cell-based, human; settings: 2 h exposure
Description: FIG. 7 is a linegraph showing a comparison of the sensitization, depicted as % survival on the Y-axis, of U-373 glioma cells exposed to APC, depicted as log[APC] at concentrations from 10^−8 to 10^−5 M on the X-axis, from in situ expression of rabbit liver CE (filled squares) and human alveolar macrophage CE (filled circles). Cells were exposed for 2 hours to APC.
(§2) No known human enzyme activates APC. […] Thus, the combination of APC and sensitization of selected tumor cells with rabbit liver CE as described above can be used to produce a tumor-specific cell death while greatly minimizing the toxic side effects associated with administration of chemotherapy.

rabbit liver CE [7] = target: T1, rabbit liver CE; experiment: In vitro conversion of APC to SN-38 by rabbit liver CE; assay type: biochemical; settings: FIG. 6
Description: FIG. 6 is a linegraph showing the conversion of APC, depicted on the X-axis at nanomolar concentrations, to SN-38, depicted on the Y-axis at nanomolar concentrations, in vitro by the activity of rabbit liver CE given at doses of 0 (filled cross), 10 (filled hexagon), 25 (filled triangle), 50 (filled circle) or 100 (filled square) units. Data presented represent the mean response at each dose level.
as §2

[8] = tumors not expressing CE (Rh30)

CCc1c2c(nc3ccc(OC(=O)N4CCC(N5CCCCC5)CC4)cc13)-c1cc3c(c(=O)n1C2)COC(=O)[C@]3(O)CC [CPT-11, 7-ethyl-10-[4-(1-piperidino)-1-piperidino]carbonyloxycamptothecin]
dose-limiting toxicities [1]: myelosuppression and secretory diarrhea
metabolism of CPT-11 (rabbit liver CE [2]): metabolized CPT-11 efficiently
time until tumors are palpable again at the original site (human NB-1691 xenografts): 4–6 weeks
tumor response (human NB-1691 xenografts): complete regression
tumor response ([3]; xenografts from cells transfected with control plasmid (no rabbit CE)): stable disease but no significant regression; also recorded: stable disease with no significant regression
tumor response ([3]; xenografts from cells transfected with plasmid encoding rabbit CE): tumor regression was seen only in treated cells expressing rabbit CE; also recorded: regressed completely
inhibition of cell growth (Rh30 cells): no inhibition of cell growth
tumor response (Rh18 RMS xenografts; 10 mg/kg/day, same schedule): only partial tumor regression
tumor response (Rh18 RMS xenografts; 20 mg of CPT-11/kg/day daily for 5 days for two weeks): complete regressions
metabolism of CPT-11 (pig liver CE): metabolized CPT-11 efficiently
IC50 ([4]; read-out: IC50 of CPT-11, Rh30pIRES cells (no CE cDNA)): 4.33 µM
IC50 ([4]; read-out: IC50 of CPT-11, Rh30pIRESrabbit cells (rabbit CE cDNA)): 0.576 µM
tumor response ([5]; tumors expressing rabbit CE (Rh30pIRESrabbit), 5 days/week for 2 weeks, 12 weeks): complete tumor regression; also recorded: regressed completely and did not regrow
time to regrowth after CPT-11 treatment stopped [5, 8]: within one week
tumor response [5, 8]: initial regression but regrowth; also recorded: regressed only transiently
prodrug converted to active drug SN-38 [6]: less than 5%

CCc1c2c(nc3ccc(O)cc13)-c1cc3c(c(=O)n1C2)COC(=O)[C@]3(O)CC [SN-38, 7-ethyl-10-hydroxy-camptothecin]
inhibition of topoisomerase I (topoisomerase I): potent inhibitor

CCc1c2c(nc3ccc(OC(=O)N4CCC(NCCCCC(=O)O)CC4)cc13)-c1cc3c(c(=O)n1C2)COC(=O)[C@]3(O)CC [APC]
sensitization to growth inhibitory effects of APC (U-373 glioma cells; U-373 cells expressing human alveolar macrophage CE): not
sensitization to growth inhibitory effects of APC (U-373 glioma cells; U-373 cells expressing rabbit liver CE): sensitized
conversion of APC to SN-38 (rabbit liver CE [7]): converted to SN-38 in a concentration-dependent manner
